From patent US20240208992A1, “MACROCYCLES AS CFTR MODULATORS” (Idorsia Pharmaceuticals Ltd, priority 2021, published 2024) come the findings set out here.

This test concerns the target human F508del-CFTR (Homo sapiens, UniProt P13569, DEL508-508). Description: F508del-CFTR cell surface expression (corrector activity), DiscoveRx ß-galactosidase complementation chemiluminescence assay in recombinant U2OS cell line.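 On all read-outs here: U2OS cells co-expressing ProLink-tagged F508del-CFTR and a membrane-anchored enzyme acceptor, where more surface CFTR restores β-galactosidase activity measured by chemiluminescence.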 To be noted: for EC50: EC50, F508del-CFTR cell surface expression, U2OS cells, 16h compound incubation, geomean values; for Emax: U2OS, in relation to Emax of corrector lumacaftor (=100%), arithmetic mean values.

Molecules are shown by their SMILES.

The EC50 is the midpoint of the concentration-response curve. Usually Emax stands for the greatest response seen or fitted, relative to the assay's reference.

Sequence of human F508del-CFTR (P13569 with tags, fused parts or gaps DEL508-508): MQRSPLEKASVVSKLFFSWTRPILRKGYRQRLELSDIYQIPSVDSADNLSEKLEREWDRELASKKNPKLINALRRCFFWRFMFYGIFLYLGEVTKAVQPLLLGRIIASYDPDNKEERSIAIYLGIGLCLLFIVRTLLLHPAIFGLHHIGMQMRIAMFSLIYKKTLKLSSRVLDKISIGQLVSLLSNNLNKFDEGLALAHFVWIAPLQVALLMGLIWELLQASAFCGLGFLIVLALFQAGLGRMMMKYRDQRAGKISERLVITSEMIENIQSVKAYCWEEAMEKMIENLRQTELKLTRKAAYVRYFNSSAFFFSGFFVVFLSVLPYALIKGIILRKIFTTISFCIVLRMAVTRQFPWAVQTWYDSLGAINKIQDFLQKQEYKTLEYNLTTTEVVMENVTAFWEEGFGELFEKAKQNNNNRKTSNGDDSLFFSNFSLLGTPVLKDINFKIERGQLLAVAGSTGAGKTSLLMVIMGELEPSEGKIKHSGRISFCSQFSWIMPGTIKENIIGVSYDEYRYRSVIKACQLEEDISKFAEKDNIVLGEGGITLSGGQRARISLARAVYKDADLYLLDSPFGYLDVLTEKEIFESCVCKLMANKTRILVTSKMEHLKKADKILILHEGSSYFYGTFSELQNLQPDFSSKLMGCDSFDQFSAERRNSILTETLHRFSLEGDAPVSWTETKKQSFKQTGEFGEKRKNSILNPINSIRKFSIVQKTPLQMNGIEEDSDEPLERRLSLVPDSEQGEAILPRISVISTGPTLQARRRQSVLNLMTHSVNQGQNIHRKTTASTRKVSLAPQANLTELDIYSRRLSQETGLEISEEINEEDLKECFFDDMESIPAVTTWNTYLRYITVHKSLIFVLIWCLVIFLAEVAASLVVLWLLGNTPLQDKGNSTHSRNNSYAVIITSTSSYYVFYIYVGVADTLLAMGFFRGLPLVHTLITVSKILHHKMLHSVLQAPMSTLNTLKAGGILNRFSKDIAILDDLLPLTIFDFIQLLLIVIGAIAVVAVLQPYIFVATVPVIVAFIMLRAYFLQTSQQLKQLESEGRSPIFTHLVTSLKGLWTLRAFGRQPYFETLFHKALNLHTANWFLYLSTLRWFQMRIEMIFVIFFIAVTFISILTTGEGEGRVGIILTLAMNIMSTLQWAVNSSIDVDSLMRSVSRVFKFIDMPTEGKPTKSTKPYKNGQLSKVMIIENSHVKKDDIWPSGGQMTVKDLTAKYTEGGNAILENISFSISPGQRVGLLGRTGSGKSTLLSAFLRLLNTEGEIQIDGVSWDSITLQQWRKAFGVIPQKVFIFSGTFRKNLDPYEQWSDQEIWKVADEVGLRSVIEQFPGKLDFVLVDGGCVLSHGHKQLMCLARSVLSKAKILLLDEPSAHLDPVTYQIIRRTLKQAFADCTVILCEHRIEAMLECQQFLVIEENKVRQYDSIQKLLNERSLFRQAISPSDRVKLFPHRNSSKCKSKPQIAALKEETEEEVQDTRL

Consider `COc1nccc2c1C(=O)N[C@H](C(=O)NCCc1cc(C)no1)CC(=O)N(C)[C@@H](CC(C)C)C(=O)N1CCN(c3ccccc3)C[C@H]1C(=O)N[C@H](Cc1ccccc1)CO2` [Example 550, (7S,11S,20R,22aS)-20-benzyl-7-isobutyl-14-methoxy-8-methyl-N-(2-(3-methylisoxazol-5-yl)ethyl)-6,9,13,22-tetraoxo-2-phenyl-1,3,4,6,7,8,9,10,11,12,13,19,20,21,22,22a-hexadecahydro-2H-pyrazino[2,1-f]pyrido[3,4-p][1]oxa[4,7,10,14]tetraazacycloheptadecine-11-carboxamide], for which the EC50 is 687 nM and the Emax was 129%.

For the molecule `COc1cccc(CCNC(=O)[C@@H]2CC(=O)N(C)[C@@H](CC(C)C)C(=O)N(C)C3(CC3)C(=O)N[C@H](Cc3ccccc3)COc3ccc4cc(C)oc4c3C(=O)N2)c1` [Example 551, (8R,14S,18S)-8-benzyl-14-isobutyl-N-(3-methoxyphenethyl)-2,12,15-trimethyl-10,13,16,20-tetraoxo-7,8,9,10,13,14,15,16,17,18,19,20-dodecahydro-12H-spiro[benzofuro[7,6-p][1]oxa[4,7,10,14]tetraazacycloheptadecine-11,1′-cyclopropane]-18-carboxamide], the EC50 is 222 nM and the Emax was 317%.

Regarding `Cc1cc2ccc3c(c2o1)C(=O)N[C@H](C(=O)NCCc1cc(C2CC2)no1)CC(=O)N(C)[C@@H](CC(C)C)C(=O)N(C)C1(CC1)C(=O)N[C@H](Cc1ccccc1)CO3` [Example 552, (8R,14S,18S)-8-benzyl-N-(2-(3-cyclopropylisoxazol-5-yl)ethyl)-14-isobutyl-2,12,15-trimethyl-10,13,16,20-tetraoxo-7,8,9,10,13,14,15,16,17,18,19,20-dodecahydro-12H-spiro[benzofuro[7,6-p][1]oxa[4,7,10,14]tetraazacycloheptadecine-11,1′-cyclopropane]-18-carboxamide], the EC50 was 413 nM and the Emax came out at 358%.

Consider `Cc1cc2ccc3c(c2o1)C(=O)N[C@H](C(=O)NCCc1noc(C2CC2)n1)CC(=O)N(C)[C@@H](CC(C)C)C(=O)N(C)C1(CC1)C(=O)N[C@H](Cc1ccccc1)CO3` [Example 553, (8R,14S,18S)-8-benzyl-N-(2-(5-cyclopropyl-1,2,4-oxadiazol-3-yl)ethyl)-14-isobutyl-2,12,15-trimethyl-10,13,16,20-tetraoxo-7,8,9,10,13,14,15,16,17,18,19,20-dodecahydro-12H-spiro[benzofuro[7,6-p][1]oxa[4,7,10,14]tetraazacycloheptadecine-11,1′-cyclopropane]-18-carboxamide], for which the EC50 was found to be 287 nM and the Emax worked out at 304%.

Turning to `Cc1cc2ccc3c(c2o1)C(=O)N[C@H](C(=O)NCCc1nc(C2CC2)no1)CC(=O)N(C)[C@@H](CC(C)C)C(=O)N(C)C1(CC1)C(=O)N[C@H](Cc1ccccc1)CO3` [Example 554, (8R,14S,18S)-8-benzyl-N-(2-(3-cyclopropyl-1,2,4-oxadiazol-5-yl)ethyl)-14-isobutyl-2,12,15-trimethyl-10,13,16,20-tetraoxo-7,8,9,10,13,14,15,16,17,18,19,20-dodecahydro-12H-spiro[benzofuro[7,6-p][1]oxa[4,7,10,14]tetraazacycloheptadecine-11,1′-cyclopropane]-18-carboxamide], the EC50 is 324 nM and the Emax came to 310%.

On to `COc1cccc(CCNC(=O)[C@@H]2CC(=O)N(C)[C@@H](CC(C)C)C(=O)N(C)C3(CC3)C(=O)N[C@H](Cc3ccccc3)COc3ncc4ccccc4c3C(=O)N2)c1` [Example 555, (3′S,7′S,13′R)-13′-benzyl-7′-isobutyl-N-(3-methoxyphenethyl)-6′,9′-dimethyl-1′,5′,8′,11′-tetraoxo-2′,3′,4′,5′,6′,7′,8′,9′,11′,12′,13′,14′-dodecahydro-1′H-spiro[cyclopropane-1,10′-[1]oxa[4,7,10,14]tetraazacycloheptadecino[17,16-c]isoquinoline]-3′-carboxamide], for which the EC50 amounted to 219 nM and the Emax came to 309%.

As to `CC(C)C[C@H]1C(=O)N(C)C2(CC2)C(=O)N[C@H](Cc2ccccc2)COc2ncc3ccccc3c2C(=O)N[C@H](C(=O)NCCc2cc(C3CC3)no2)CC(=O)N1C` [Example 556, (3′S,7′S,13′R)-13′-benzyl-N-(2-(3-cyclopropylisoxazol-5-yl)ethyl)-7′-isobutyl-6′,9′-dimethyl-1′,5′,8′,11′-tetraoxo-2′,3′,4′,5′,6′,7′,8′,9′,11′,12′,13′,14′-dodecahydro-1′H-spiro[cyclopropane-1,10′-[1]oxa[4,7,10,14]tetraazacycloheptadecino[17,16-c]isoquinoline]-3′-carboxamide], the EC50 was determined as 327 nM and the Emax came to 322%.

For `COc1nccc2c1C(=O)N[C@H](C(=O)NCCc1noc(C3CC3)n1)CC(=O)N(C)[C@@H](CC(C)C)C(=O)N(C)[C@@H](CC1CCC(F)(F)CC1)C(=O)N[C@H](Cc1ccccc1)CO2` [Example 557, (3R,6S,9S,13S)-3-benzyl-N-(2-(5-cyclopropyl-1,2,4-oxadiazol-3-yl)ethyl)-6-((4,4-difluorocyclohexyl)methyl)-9-isobutyl-16-methoxy-7,10-dimethyl-5,8,11,15-tetraoxo-2,3,4,5,6,7,8,9,10,11,12,13,14,15-tetradecahydropyrido[3,4-p][1]oxa[4,7,10,14]tetraazacycloheptadecine-13-carboxamide], the EC50 came out at 594 nM and the Emax was found to be 253%.

Consider `COc1nccc2c1C(=O)N[C@H](C(=O)NCCc1noc(C3CC3)n1)CC(=O)N(C)[C@@H](CC(C)C)C(=O)N(C)[C@H](CC1CCC(F)(F)CC1)C(=O)N[C@H](Cc1ccccc1)CO2` [Example 558, (3R,6R,9S,13S)-3-benzyl-N-(2-(5-cyclopropyl-1,2,4-oxadiazol-3-yl)ethyl)-6-((4,4-difluorocyclohexyl)methyl)-9-isobutyl-16-methoxy-7,10-dimethyl-5,8,11,15-tetraoxo-2,3,4,5,6,7,8,9,10,11,12,13,14,15-tetradecahydropyrido[3,4-p][1]oxa[4,7,10,14]tetraazacycloheptadecine-13-carboxamide], for which the EC50 is 167 nM and the Emax turned out to be 355%.

`CC(C)C[C@H]1C(=O)N2CCCC[C@@H]2C(=O)N[C@H](Cc2ccccc2)COc2cnc3ccccc3c2C(=O)N[C@H](C(=O)NCCc2cc(C(F)(F)F)no2)CC(=O)N1C` [Example 559, (9S,13S,19aR,22R)-22-benzyl-13-isobutyl-12-methyl-7,11,14,20-tetraoxo-N-(2-(3-(trifluoromethyl)isoxazol-5-yl)ethyl)-7,8,9,10,11,12,13,14,17,18,19,19a,20,21,22,23-hexadecahydro-16H-pyrido[2′,1′:6,7][1]oxa[4,7,10,14]tetraazacycloheptadecino[17,16-c]quinoline-9-carboxamide]: the EC50 came out at 155 nM and the Emax is 236%.
